Molecular target: T1, TRPML1 (Homo sapiens, UniProt Q9GZU1)
T1 construct: expressed in transfected cells; host or cells: HEK T-REx cells stably expressing GCaMP6f and TRPML1
Experiment: Cellular TRPML1 assay (FLIPR, GCaMP6f calcium read-out)
Assay type: cell-based
Conditions: HEKT-REx/GCaMP6f/TRPML1 cells, FLIPR TETRA, kinetic response over 300 seconds; read-out: TRPML1 FLIPR pEC50 (converted)
Experimental: Example A: Cellular TRPML1 Assay
The final clone for the TRPML1 assay is HEKT-REx/GCaMP6f/TRPML1. GCaMP6f is a genetically encoded calcium indicator that is stably expressed in this cell line and used as a fluorescent read-out.
Experiments were performed in 384 MTP format. Cells are seeded at 15000 cells/well in 20 μl/well of Optimem+0.5% FBS without selection antibiotics. Twenty-four hours later, cells are assayed for the response to various compounds using the Ca^2+ sensitive GCaMP6f protein stably expressed in the cells as readout.
The experiment was performed in a 384-well format according to the following procedures: • 24 h after seeding, the cells were pre-incubated at room temperature for about 10 min. • Started the experiment at the FLIPR^TETRA by injecting 10 μL/w of 3× concentrated test compounds and controls in Ca^2+ free Tyrode's buffer. Monitored the kinetic response over a period of 300 seconds. • Final DMSO concentration: 0.5%
Data from FLIPR^TETRA measurements were analyzed with the Genedata Screener© software.

T1 sequence (Q9GZU1 whole entry): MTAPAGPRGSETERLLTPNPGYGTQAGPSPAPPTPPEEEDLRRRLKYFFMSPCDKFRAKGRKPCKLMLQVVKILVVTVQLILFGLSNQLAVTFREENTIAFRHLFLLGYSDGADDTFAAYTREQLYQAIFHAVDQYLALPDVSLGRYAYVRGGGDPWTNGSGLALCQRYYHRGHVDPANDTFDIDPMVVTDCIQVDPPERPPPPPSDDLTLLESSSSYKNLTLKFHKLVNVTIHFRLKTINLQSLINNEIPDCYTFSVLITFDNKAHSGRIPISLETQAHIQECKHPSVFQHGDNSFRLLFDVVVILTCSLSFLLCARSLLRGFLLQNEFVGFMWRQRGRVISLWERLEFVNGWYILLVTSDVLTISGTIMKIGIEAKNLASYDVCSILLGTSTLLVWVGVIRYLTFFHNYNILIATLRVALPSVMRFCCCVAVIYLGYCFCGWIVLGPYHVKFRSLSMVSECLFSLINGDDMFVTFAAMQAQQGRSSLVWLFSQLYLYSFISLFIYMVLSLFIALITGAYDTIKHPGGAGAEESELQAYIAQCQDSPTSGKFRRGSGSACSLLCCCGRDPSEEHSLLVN

EC50	Structure (SMILES)
10 to 1000 nM	CC1(C)CN(c2nc(C(=O)Nc3cc(F)c(OC4COCC4(F)F)c(F)c3)c(CC(F)(F)F)o2)C1 (stereo not drawn) [Example 70, N-{4-[(4,4-difluorotetrahydrofuran-3-yl)oxy]-3,5-difluorophenyl}-2-(3,3-dimethylazetidin-1-yl)-5-(2,2,2-trifluoroethyl)oxazole-4-carboxamide]
1000 to 10000 nM	O=C(Nc1ccc(OC2CCCC2)c(F)c1)c1nc(N2CCCC2)oc1CC(F)(F)F [Example 62, N-[4-(cyclopentyloxy)-3-fluorophenyl]-2-(pyrrolidin-1-yl)-5-(2,2,2-trifluoroethyl)oxazole-4-carboxamide]
1000 to 10000 nM	CC1CCCN1c1nc(C(=O)Nc2ccc(N3CCCCC3)c(F)c2)c(CC(F)(F)F)o1 (stereo not drawn) [Example 29, N-(3-fluoro-4-(piperidin-1-yl)phenyl)-2-(2-methylpyrrolidin-1-yl)-5-(2,2,2-trifluoroethyl)oxazole-4-carboxamide]
1000 to 10000 nM	CCc1oc(N2CCCOCC2)nc1C(=O)Nc1cc(F)c(O[C@@H]2C[C@@H]3C[C@@H]3C2)c(F)c1 [Example 231, N-(4-(cis-bicyclo[3.1.0]hexan-3-yloxy)-3,5-difluorophenyl)-5-ethyl-2-(1,4-oxazepan-4-yl)oxazole-4-carboxamide]
10000 to 100000 nM	Cc1oc(N2CCC(O)C2)nc1C(=O)Nc1ccc(N2CCCCC2)c(F)c1 (stereo not drawn) [Example 97, N-(3-fluoro-4-(piperidin-1-yl)phenyl)-2-(3-hydroxypyrrolidin-1-yl)-5-methyloxazole-4-carboxamide]
1000 to 10000 nM	O=C(Nc1cc(F)c(O[C@@H]2C[C@@H]3C[C@@H]3C2)c(F)c1)c1nc(N2CCCC2)oc1CN1CCC1 [Example 306, 5-(azetidin-1-ylmethyl)-N-(4-(cis-bicyclo[3.1.0]hexan-3-yloxy)-3,5-difluorophenyl)-2-(pyrrolidin-1-yl)oxazole-4-carboxamide]
1000 to 10000 nM	CCC1(OC)CN(c2nc(C(=O)Nc3cc(F)c4c(c3)CCN4C3CC4CC4C3)c(CC(F)(F)F)o2)C1 (stereo not drawn) [Example 313, N-(1-(bicyclo[3.1.0]hexan-3-yl)-7-fluoroindolin-5-yl)-2-(3-ethyl-3-methoxyazetidin-1-yl)-5-(2,2,2-trifluoroethyl)oxazole-4-carboxamide]
1000 to 10000 nM	O=C(Nc1ccc(N2CCCCC2)c(F)c1)c1nc(N2CCC3(CC3)C2)oc1CC(F)(F)F [Example 27, 2-{5-azaspiro[2.4]heptan-5-yl}-N-[3-fluoro-4-(piperidin-1-yl)phenyl]-5-(2,2,2-trifluoroethyl)-1,3-oxazole-4-carboxamide]
1000 to 10000 nM	COC1(C)CN(c2nc(C(=O)Nc3ccc(OC4CC5CCC(C4)O5)c(F)c3)c(CC(F)(F)F)o2)C1 (stereo not drawn) [Example 133, N-(4-((8-oxabicyclo[3.2.1]octan-3-yl)oxy)-3-fluorophenyl)-2-(3-methoxy-3-methylazetidin-1-yl)-5-(2,2,2-trifluoroethyl)oxazole-4-carboxamide]
10 to 1000 nM	O=C(Nc1cc(F)c(O[C@@H]2C[C@@H]3C[C@@H]3C2)c(F)c1)c1nc(N2Cc3conc3C2)oc1CC(F)(F)F [Example 166, N-(4-(cis-bicyclo[3.1.0]hexan-3-yloxy)-3,5-difluorophenyl)-2-(4H-pyrrolo[3,4-c]isoxazol-5(6H)-yl)-5-(2,2,2-trifluoroethyl)oxazole-4-carboxamide]
1000 to 10000 nM	CCc1oc(N2CC3CCOC3C2)nc1C(=O)Nc1cc(F)c(OC2CC3C[C@H]3C2)c(F)c1 (stereo partly drawn) [Example 233, N-(4-(cis-bicyclo[3.1.0]hexan-3-yloxy)-3,5-difluorophenyl)-5-ethyl-2-(hexahydro-5H-furo[2,3-c]pyrrol-5-yl)oxazole-4-carboxamide]

Structure (SMILES)	EC50
CCc1oc(N2CC3COCC3C2)nc1C(=O)Nc1cc(F)c(N2CC3CC(C3)C2)c(F)c1 (stereo not drawn) [Example 257, N-(4-(3-azabicyclo[3.1.1]heptan-3-yl)-3,5-difluorophenyl)-5-ethyl-2-(tetrahydro-1H-furo[3,4-c]pyrrol-5(3H)-yl)oxazole-4-carboxamide]	1000 to 10000 nM
